Test results reported in US9242933B2 (AbbVie Deutschland GmbH & Co. KG, priority 2007, dated 2016).

Target: T1, human mGlu2 receptor (Homo sapiens, UniProt Q14416)
T1 construct: expressed in transfected cells; host or cells: HEK293
Assay: FLIPR intracellular Ca2+ assay, potentiation of glutamate response in HEK293 clone expressing mGlu2 receptor, rGLAST and Galpha16
Assay type: cell-based
Conditions: 1 μM glutamate added ten minutes after test compound, HEK293 cells with human mGlu2, rGLAST, Galpha16, read-out: EC50 values of potentiation effect to glutamate
How it was run: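 HEK293 cells stably expressing human mGlu2, rat GLAST and Gα16 were loaded with 2 µM Fluo-4 AM and intracellular Ca2+ read by FLIPR. Compound added alone (agonism), then with submaximal glutamate (e.g. 1 µM; potentiation). Background-subtracted peaks normalized to 100 µM glutamate response; EC50 from four-parameter fit.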

T1 sequence (Q14416 19-872): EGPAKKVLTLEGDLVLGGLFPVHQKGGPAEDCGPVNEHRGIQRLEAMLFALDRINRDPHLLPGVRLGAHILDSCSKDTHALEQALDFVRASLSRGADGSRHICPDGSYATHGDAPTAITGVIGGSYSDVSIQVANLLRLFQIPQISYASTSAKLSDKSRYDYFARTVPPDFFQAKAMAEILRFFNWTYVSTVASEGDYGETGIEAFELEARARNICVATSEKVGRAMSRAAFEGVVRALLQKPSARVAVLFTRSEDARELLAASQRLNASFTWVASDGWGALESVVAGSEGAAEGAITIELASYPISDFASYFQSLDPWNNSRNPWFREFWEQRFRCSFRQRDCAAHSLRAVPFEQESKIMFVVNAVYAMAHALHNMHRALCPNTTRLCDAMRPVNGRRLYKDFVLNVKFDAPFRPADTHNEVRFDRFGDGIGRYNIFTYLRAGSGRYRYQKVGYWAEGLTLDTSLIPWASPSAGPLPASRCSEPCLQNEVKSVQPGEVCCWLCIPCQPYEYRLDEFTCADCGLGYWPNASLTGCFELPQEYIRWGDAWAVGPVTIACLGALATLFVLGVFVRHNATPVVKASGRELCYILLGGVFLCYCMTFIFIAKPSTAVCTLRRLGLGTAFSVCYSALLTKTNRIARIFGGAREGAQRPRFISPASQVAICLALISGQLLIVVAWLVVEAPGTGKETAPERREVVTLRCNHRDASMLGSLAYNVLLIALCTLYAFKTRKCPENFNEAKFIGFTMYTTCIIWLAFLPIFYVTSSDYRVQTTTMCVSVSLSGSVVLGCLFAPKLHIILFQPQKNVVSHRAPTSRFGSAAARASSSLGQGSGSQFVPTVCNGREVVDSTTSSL

Compound	EC50
O=C1c2ccc(OCc3c[nH]nc3-c3cccc(C(F)(F)F)c3)cc2CN1CC(F)(F)F [Example 569, 2-(2,2,2-Trifluoro-ethyl)-5-[3-(3-trifluoromethyl-phenyl)-1H-pyrazol-4-ylmethoxy]-2,3-dihydro-isoindol-1-one]	< 1 µM
O=C1c2ccc(OCc3c[nH]nc3-c3ccc(F)cc3)cc2CN1CC(F)(F)F [Example 570, 5-[3-(4-Fluorophenyl)-1H-pyrazol-4-ylmethoxy]-2-(2,2,2-trifluoro-ethyl)-2,3-dihydro-isoindol-1-one]	< 1 µM
O=C1c2ccc(OCc3c[nH]nc3-c3cccc(F)c3)cc2CN1CC(F)(F)F [Example 571, 5-[3-(3-Fluorophenyl)-1H-pyrazol-4-ylmethoxy]-2-(2,2,2-trifluoro-ethyl)-2,3-dihydro-isoindol-1-one]	< 1 µM
CN1Cc2cc(OCc3c[nH]nc3-c3ccc(C(F)(F)F)cc3)ccc2C1=O [Example 573, 2-Methyl-5-[3-(4-trifluoromethyl-phenyl)-1H-pyrazol-4-ylmethoxy]-2,3-dihydro-isoindol-1-one]	< 1 µM
CCCN1CCc2cc(OCc3c[nH]nc3-c3ccc(C(F)(F)F)cc3)ccc2C1=O [Example 574, 2-Propyl-6-[3-(4-trifluoromethyl-phenyl)-1H-pyrazol-4-ylmethoxy]-3,4-dihydro-2H-isoquinolin-1-one]	< 1 µM
CCCN1Cc2cc(NCc3c[nH]nc3-c3ccc(Cl)cc3)ccc2C1=O [Example 576, 5-{[3-(4-Chloro-phenyl)-1H-pyrazol-4-ylmethyl]-amino}-2-propyl-2,3-dihydro-isoindol-1-one]	< 1 µM
CCCN1Cc2cc(NCc3c[nH]nc3-c3cccc(Cl)c3)ccc2C1=O [Example 577, 5-{[3-(3-Chloro-phenyl)-1H-pyrazol-4-ylmethyl]-amino}-2-propyl-2,3-dihydro-isoindol-1-one]	< 1 µM
CCCN1Cc2cc(NCc3c[nH]nc3-c3cccc(C(F)(F)F)c3)ccc2C1=O [Example 578]	< 1 µM
CCCN1Cc2cc(NCc3c[nH]nc3-c3ccc(F)cc3)ccc2C1=O [Example 579, 5-{[3-(4-Fluorophenyl)-1H-pyrazol-4-ylmethyl]-amino}-2-propyl-2,3-dihydro-isoindol-1-one]	< 1 µM
CCCN1Cc2cc(NCc3c[nH]nc3-c3cccc(F)c3)ccc2C1=O [Example 580, 5-{[3-(3-Fluorophenyl)-1H-pyrazol-4-ylmethyl]-amino}-2-propyl-2,3-dihydro-isoindol-1-one]	< 1 µM
CCCN1Cc2cc(NCc3c[nH]nc3-c3ccccc3)ccc2C1=O [Example 581, 5-[(3-Phenyl-1H-pyrazol-4-ylmethyl)-amino]-2-propyl-2,3-dihydro-isoindol-1-one]	< 1 µM

Results, then the compound that gave them:

EC50	Compound
1 to 10 µM	CCCN1Cc2cc(NCc3n[nH]cc3-c3cccc(C(F)(F)F)c3)ccc2C1=O [Example 582]
< 1 µM	O=C1c2ccc(OCc3c[nH]nc3-c3ccc(C(F)(F)F)cc3)cc2CN1Cc1ccc(OC(F)(F)F)cc1 [Example 585, 2-(4-Trifluoromethoxy-benzyl)-5-[3-(4-trifluoromethyl-phenyl)-1H-pyrazol-4-ylmethoxy]-2,3-dihydro-isoindol-1-one]
< 1 µM	O=C1c2ccc(OCc3c[nH]nc3-c3ccc(C(F)(F)F)cc3)cc2CN1CC1CCCCC1 [Example 586, 2-Cyclohexylmethyl-5-[3-(4-trifluoromethyl-phenyl)-1H-pyrazol-4-ylmethoxy]-2,3-dihydro-isoindol-1-one]
< 1 µM	CC(C)CN1Cc2cc(OCc3c[nH]nc3-c3ccc(C(F)(F)F)cc3)ccc2C1=O [Example 587, 2-Isobutyl-5-[3-(4-trifluoromethyl-phenyl)-1H-pyrazol-4-ylmethoxy]-2,3-dihydro-isoindol-1-one]
< 1 µM	O=C1c2ccc(OCc3c[nH]nc3-c3ccc(C(F)(F)F)cc3)cc2CN1C1CCCC1 [Example 588, 2-Cyclopentyl-5-[3-(4-trifluoromethyl-phenyl)-1H-pyrazol-4-ylmethoxy]-2,3-dihydro-isoindol-1-one]
1 to 10 µM	O=C1c2ccc(OCc3c[nH]nc3-c3ccc(C(F)(F)F)cc3)cc2CN1c1ccccc1 [Example 589, 2-Phenyl-5-[3-(4-trifluoromethyl-phenyl)-1H-pyrazol-4-ylmethoxy]-2,3-dihydro-isoindol-1-one]
< 1 µM	CCCN1Cc2cc(NCc3c(C)noc3-c3ccccc3)ccc2C1=O [Example 590, 5-[(3-Methyl-5-phenyl-isoxazol-4-ylmethyl)-amino]-2-propyl-2,3-dihydro-isoindol-1-one]

Target: mGlu3 (Homo sapiens, UniProt Q14832)
Sequence (Q14832 23-879): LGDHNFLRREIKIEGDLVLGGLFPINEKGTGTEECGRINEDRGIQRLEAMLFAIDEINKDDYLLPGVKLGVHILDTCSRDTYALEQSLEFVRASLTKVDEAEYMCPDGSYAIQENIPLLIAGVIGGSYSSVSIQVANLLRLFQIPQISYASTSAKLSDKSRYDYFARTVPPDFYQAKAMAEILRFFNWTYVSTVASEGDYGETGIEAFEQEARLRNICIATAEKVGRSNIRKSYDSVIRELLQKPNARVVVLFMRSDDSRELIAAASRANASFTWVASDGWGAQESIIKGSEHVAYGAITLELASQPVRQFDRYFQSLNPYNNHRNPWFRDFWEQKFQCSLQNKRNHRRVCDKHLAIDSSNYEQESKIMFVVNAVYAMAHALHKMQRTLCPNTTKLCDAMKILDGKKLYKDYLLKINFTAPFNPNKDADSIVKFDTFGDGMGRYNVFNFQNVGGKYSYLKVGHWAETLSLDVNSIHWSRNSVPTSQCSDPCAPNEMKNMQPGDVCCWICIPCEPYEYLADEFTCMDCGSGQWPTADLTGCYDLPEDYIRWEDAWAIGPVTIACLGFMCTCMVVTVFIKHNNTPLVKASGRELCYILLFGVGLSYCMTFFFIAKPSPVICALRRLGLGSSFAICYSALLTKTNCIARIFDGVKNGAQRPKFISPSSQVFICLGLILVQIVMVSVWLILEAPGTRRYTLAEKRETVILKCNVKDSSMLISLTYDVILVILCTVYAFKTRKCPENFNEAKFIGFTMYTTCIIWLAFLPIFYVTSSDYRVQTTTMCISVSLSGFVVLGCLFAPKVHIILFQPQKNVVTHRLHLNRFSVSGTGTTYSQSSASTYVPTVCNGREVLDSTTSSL
Assay: not given
Conditions: agonist; cited from earlier work

Compound	EC50
N[C@@]1(C(=O)O)CC[C@H]2[C@H](C(=O)O)[C@H]21 [LY354740]	0.02 µM
N[C@@]1(C(=O)O)CO[C@H]2[C@H](C(=O)O)[C@H]21 [LY379268]	0.005 µM
